# Biological target: CDK2/Cyclin E1 (Homo sapiens (Human), UniProt P24941)
# Experiment: CDK2/Cyclin E1 HTRF enzyme activity assay
# Assay type: biochemical
# Conditions: 1 mM ATP
# Description: Assays are conducted in white 384-well polystyrene plates in a final reaction volume of 8 μL. […] HTRF signals are read after 1 hour at room temperature on a PHERAstar FS plate reader (BMG Labtech). Data is analyzed with IDBS XLFit and GraphPad Prism 5.0 software using a three or four parameter dose response curve to determine IC50 for each compound.
row,SMILES,IC50 [nM]
1,"Cc1cc(CN2CCN(C)CC2)ccc1-n1cc(-c2nc(N[C@H]3CCN(S(=O)(=O)c4ccn(C)n4)C[C@H]3F)ncc2C(F)(F)F)cn1 [Example 103, N-((3R,4S)-3-Fluoro-1-((1-methyl-1H-pyrazol-3-yl)sulfonyl)piperidin-4-yl)-4-(1-(2-methyl-4-((4-methylpiperazin-1-yl)methyl)phenyl)-1H-pyrazol-4-yl)-5-(trifluoromethyl)pyrimidin-2-amine]",< 50
2,"CCCS(=O)(=O)N1CC[C@H](Nc2ncc(C#N)c(-c3cnn(-c4ccc(CNC)cc4Cl)c3)n2)[C@H](F)C1 [Example 118, 4-(1-(2-Chloro-4-((methylamino)methyl)phenyl)-1H-pyrazol-4-yl)-2-(((3R,4S)-3-fluoro-1-(propylsulfonyl)piperidin-4-yl)amino)pyrimidine-5-carbonitrile]",< 50
3,"CC(=O)N1CC[C@@H](NCc2ccc(-n3cc(-c4nc(NC5CCN(S(C)(=O)=O)CC5)ncc4C#N)cn3)c(Cl)c2)C1 [Example 170, (R)-4-(1-(4-(((1-Acetylpyrrolidin-3-yl)amino)methyl)-2-chlorophenyl)-1H-pyrazol-4-yl)-2-((1-(methylsulfonyl)piperidin-4-yl)amino)pyrimidine-5-carbonitrile]",< 50
4,"CNCc1ccc(-n2cc(-c3nc(N[C@H]4CCN(S(=O)(=O)C5CC5)C[C@H]4F)ncc3C(F)(F)F)cn2)c(C)c1 [Example 123, N-((3R,4S)-1-(Cyclopropylsulfonyl)-3-fluoropiperidin-4-yl)-4-(1-(2-methyl-4-((methylamino)methyl)phenyl)-1H-pyrazol-4-yl)-5-(trifluoromethyl)pyrimidin-2-amine]",< 50
5,"CS(=O)(=O)N1CCC(Nc2ncc(C(F)(F)F)c(-c3cnn(-c4ccccc4F)c3)n2)CC1 [Example 13, 4-(1-(2-Fluorophenyl)-1H-pyrazol-4-yl)-N-(1-(methylsulfonyl)piperidin-4-yl)-5-(trifluoromethyl)pyrimidin-2-amine]",< 50
6,"[2H]C([2H])([2H])NCc1ccc(-n2cc(-c3nc(NC4CCN(S(=O)(=O)C5CC5)CC4)ncc3C(F)(F)F)cn2)c(C)c1 [Example 130, N-(1-(Cyclopropylsulfonyl)piperidin-4-yl)-4-(1-(2-methyl-4-(((methyl-d3)amino)methyl)phenyl)-1H-pyrazol-4-yl)-5-(trifluoromethyl)pyrimidin-2-amine]",< 50
7,"Cn1cc(S(=O)(=O)N2CCC(Nc3ncc(C(F)(F)F)c(-c4cnn(C5CCOCC5)c4)n3)CC2)cn1 [Example 9, N-(1-((1-Methyl-1H-pyrazol-4-yl)sulfonyl)piperidin-4-yl)-4-(1-(tetrahydro-2H-pyran-4-yl)-1H-pyrazol-4-yl)-5-(trifluoromethyl)pyrimidin-2-amine]",< 50
8,"CN(C)CCS(=O)(=O)N1CCC(Nc2ncc(C(F)(F)F)c(-c3cnn(CC(C)(C)O)c3)n2)CC1 [Example 83, 1-(4-(2-((1-((2-(Dimethylamino)ethyl)sulfonyl)piperidin-4-yl)amino)-5-(trifluoromethyl)pyrimidin-4-yl)-1H-pyrazol-1-yl)-2-methylpropan-2-ol]",< 50
9,"[2H]C([2H])([2H])NCc1ccc(-n2cc(-c3nc(N[C@H]4CCN(S(=O)(=O)C5CC5)C[C@H]4F)ncc3C(F)(F)F)cn2)c(C)c1 [Example 133, N-((3R,4S)-1-(Cyclopropylsulfonyl)-3-fluoropiperidin-4-yl)-4-(1-(2-methyl-4-(((methyl-d3)amino)methyl)phenyl)-1H-pyrazol-4-yl)-5-(trifluoromethyl)pyrimidin-2-amine]",< 50
10,"CC(C)(C(N)=O)n1cc(-c2nc(NC3CCN(S(C)(=O)=O)CC3)ncc2C(F)(F)F)cn1 [Example 30, 2-Methyl-2-(4-(2-((1-(methylsulfonyl)piperidin-4-yl)amino)-5-(trifluoromethyl)pyrimidin-4-yl)-1H-pyrazol-1-yl)propanamide]",< 50
11,"CC(C)(O)Cn1cc(-c2nc(NC3CCN(S(=O)(=O)CCCCN4CCCCC4)CC3)ncc2C#N)cn1 [Example 218, 4-(1-(2-Hydroxy-2-methylpropyl)-1H-pyrazol-4-yl)-2-((1-((4-(piperidin-1-yl)butyl)sulfonyl)piperidin-4-yl)amino)pyrimidine-5-carbonitrile]",< 50
12,"CC(C)(O)Cn1cc(-c2nc(N[C@H]3CCN(S(=O)(=O)C4CC4)C[C@H]3F)ncc2C(F)(F)F)cn1 [Example 57, 1-(4-(2-(((3R,4S)-1-(Cyclopropylsulfonyl)-3-fluoropiperidin-4-yl)amino)-5-(trifluoromethyl)pyrimidin-4-yl)-1H-pyrazol-1-yl)-2-methylpropan-2-ol]",< 50
13,"COC[C@H]1CCN(CCCS(=O)(=O)N2CCC(Nc3ncc(C(F)(F)F)c(-c4cnn(CC(C)(C)O)c4)n3)CC2)C1 [Example 74, (S)-1-(4-(2-((1-((3-(3-(Methoxymethyl)pyrrolidin-1-yl)propyl)sulfonyl)piperidin-4-yl)amino)-5-(trifluoromethyl)pyrimidin-4-yl)-1H-pyrazol-1-yl)-2-methylpropan-2-ol]",< 50
14,"CN1CCN(CCCS(=O)(=O)N2CCC(Nc3ncc(C(F)(F)F)c(-c4cnn(CC(C)(C)O)c4)n3)CC2)CC1=O [Example 70, 4-(3-((4-((4-(1-(2-Hydroxy-2-methylpropyl)-1H-pyrazol-4-yl)-5-(trifluoromethyl)pyrimidin-2-yl)amino)piperidin-1-yl)sulfonyl)propyl)-1-methylpiperazin-2-one]",< 50
15,"CS(=O)(=O)N1CCC(Nc2ncc(C(F)(F)F)c(-c3cnn(C4CCCCC4)c3)n2)CC1 [Example 12, 4-(1-Cyclohexyl-1H-pyrazol-4-yl)-N-(1-(methylsulfonyl)piperidin-4-yl)-5-(trifluoromethyl)pyrimidin-2-amine]",< 50
16,"CC(C)(O)Cn1cc(-c2nc(NC3CCN(S(=O)(=O)CCCN4CCCCC4)CC3)ncc2C#N)cn1 [Example 215, 4-(1-(2-Hydroxy-2-methylpropyl)-1H-pyrazol-4-yl)-2-((1-((3-(piperidin-1-yl)propyl)sulfonyl)piperidin-4-yl)amino)pyrimidine-5-carbonitrile]",< 50
17,"CCN1CCN(CCCS(=O)(=O)N2CC[C@H](Nc3ncc(C(F)(F)F)c(-c4cnn(CC(C)(C)O)c4)n3)[C@H](F)C2)CC1 [Example 210, 1-(4-(2-(((3R,45)-1-((3-(4-Ethylpiperazin-1-yl)propyl)sulfonyl)-3-fluoropiperidin-4-yl)amino)-5-(trifluoromethyl)pyrimidin-4-yl)-1H-pyrazol-1-yl)-2-methylpropan-2-ol]",< 50
18,"CS(=O)(=O)N1CC(Nc2ncc(C(F)(F)F)c(-c3cnn(C4CCOCC4)c3)n2)C1 [Example 20, N-(1-(Methylsulfonyl)azetidin-3-yl)-4-(1-(tetrahydro-2H-pyran-4-yl)-1H-pyrazol-4-yl)-5-(trifluoromethyl)pyrimidin-2-amine]",500 to 1000

# Second part, the compound after the results:
row,IC50 [nM],SMILES
1,< 50,"Cc1cc(CN2CCN(C)C(=O)C2)ccc1-n1cc(-c2nc(NC3CCN(S(=O)(=O)c4cn(C)cn4)CC3)ncc2Cl)cn1 [Example 248, 4-(4-(4-(5-Chloro-2-((1-((1-methyl-1H-imidazol-4-yl)sulfonyl)piperidin-4-yl)amino)pyrimidin-4-yl)-1H-pyrazol-1-yl)-3-methylbenzyl)-1-methylpiperazin-2-one]"
2,< 50,"CCNCc1ccc(-n2cc(-c3nc(NC4CCN(S(=O)(=O)c5cn(C)cn5)CC4)ncc3Cl)cn2)c(C)n1 [Example 267, 5-Chloro-4-(1-(6-((ethylamino)methyl)-2-methylpyridin-3-yl)-1H-pyrazol-4-yl)-N-(1-((1-methyl-1H-imidazol-4-yl)sulfonyl)piperidin-4-yl)pyrimidin-2-amine]"
3,< 50,Cc1nc(CN[C@]2(C)C[C@H](O)C2)ccc1-n1cc(-c2nc(NC3CCN(S(C)(=O)=O)CC3)ncc2C#N)cn1 [Example 265]
4,< 50,"Cn1cnc(S(=O)(=O)N2CCC(Nc3ncc(C(F)(F)F)c(-c4cnn(-c5ccnc(N)c5Cl)c4)n3)CC2)c1 [Example 36, 4-(1-(2-Amino-3-chloropyridin-4-yl)-1H-pyrazol-4-yl)-N-(1-((1-methyl-1H-imidazol-4-yl)sulfonyl)piperidin-4-yl)-5-(trifluoromethyl)pyrimidin-2-amine]"
5,< 50,"[2H]C([2H])([2H])NCc1ccc(-n2cc(-c3nc(NC4CCN(S(=O)(=O)c5ccn(C)n5)CC4)ncc3Cl)cn2)c(C)c1 [Example 137, 5-Chloro-N-(1-((1-methyl-1H-pyrazol-3-yl)sulfonyl)piperidin-4-yl)-4-(1-(2-methyl-4-(((methyl-d3)amino)methyl)phenyl)-1H-pyrazol-4-yl)pyrimidin-2-amine]"
6,< 50,"COC(=O)N1CC(NCc2ccc(-n3cc(-c4nc(NC5CCN(S(C)(=O)=O)CC5)ncc4C#N)cn3)c(Cl)c2)C1 [Example 172, Methyl 3-((3-chloro-4-(4-(5-cyano-2-((1-(methylsulfonyl)piperidin-4-yl)amino)pyrimidin-4-yl)-1H-pyrazol-1-yl)benzyl)amino)azetidine-1-carboxylate]"
7,< 50,"CCOC(=O)N1CCC(NCc2ccc(-n3cc(-c4nc(NC5CCN(S(C)(=O)=O)CC5)ncc4C#N)cn3)c(Cl)c2)CC1 [Example 197, Ethyl 4-((3-chloro-4-(4-(5-cyano-2-((1-(methylsulfonyl)piperidin-4-yl)amino)pyrimidin-4-yl)-1H-pyrazol-1-yl)benzyl)amino)piperidine-1-carboxylate]"
8,< 50,"Cc1nc(CNC(C)C)ccc1-n1cc(-c2nc(NC3CCN(S(=O)(=O)c4cn(C)cn4)CC3)ncc2C(F)(F)F)cn1 [Example 275, 4-(1-(6-((Isopropylamino)methyl)-2-methylpyridin-3-yl)-1H-pyrazol-4-yl)-N-(1-((1-methyl-1H-imidazol-4-yl)sulfonyl)piperidin-4-yl)-5-(trifluoromethyl)pyrimidin-2-amine]"
9,< 50,"CC(C)(CO)NCc1ccc(-n2cc(-c3nc(NC4CCN(S(C)(=O)=O)CC4)ncc3C#N)cn2)c(Cl)c1 [Example 157, 4-(1-(2-Chloro-4-(((1-hydroxy-2-methylpropan-2-yl)amino)methyl)phenyl)-1H-pyrazol-4-yl)-2-((1-(methylsulfonyl)piperidin-4-yl)amino)pyrimidine-5-carbonitrile]"

# Source: patent publication US11472791B2 (Incyte Corporation, priority 2019, dated 2022)
